In patent US20240366598A1, “GLUCOSE-DEPENDENT INSULINOTROPIC POLYPEPTIDE RECEPTOR ANTAGONISTS AND USES THEREOF” (Pfizer Inc., priority 2023, published 2024):
Where a name gives a salt, the structure may show the parent alone.

Target: T1, human Glucose-dependent Insulinotropic Polypeptide Receptor (hGIPR) (Homo sapiens, UniProt P48546)
T1 sequence (P48546 22-466): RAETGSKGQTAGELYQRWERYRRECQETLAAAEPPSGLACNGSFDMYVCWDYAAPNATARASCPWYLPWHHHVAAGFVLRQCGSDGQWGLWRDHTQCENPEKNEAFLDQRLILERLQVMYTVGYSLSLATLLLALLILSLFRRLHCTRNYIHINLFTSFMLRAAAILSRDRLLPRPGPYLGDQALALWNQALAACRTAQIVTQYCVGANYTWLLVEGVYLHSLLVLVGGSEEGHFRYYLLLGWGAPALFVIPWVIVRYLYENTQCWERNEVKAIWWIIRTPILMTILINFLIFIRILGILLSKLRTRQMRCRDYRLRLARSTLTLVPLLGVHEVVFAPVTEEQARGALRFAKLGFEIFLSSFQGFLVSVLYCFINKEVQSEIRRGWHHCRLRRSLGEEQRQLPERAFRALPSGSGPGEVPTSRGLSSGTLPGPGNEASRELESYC
Assay: Functional in vitro GIPR antagonist potency assay (cAMP HTRF, CHO-K1 cells stably expressing hGIPR, hGIP stimulation at about EC80)
Assay type: cell-based
Conditions: geometric mean, hGIP at estimated EC80, examples marked ^2: overall geometric mean of multiple forms (including salts) tested
Description: Example AA. Functional In Vitro GIPR Antagonist Potency Assay
The functional in vitro antagonist potency for test compounds was determined by monitoring intracellular cyclic adenosine monophosphate (cAMP) levels in Chinese hamster ovary (CHO)—K1 cells stably expressing the human Glucose-dependent Insulinotropic Polypeptide Receptor (hGIPR). Following agonist activation, hGIPR associates with the G-protein complex causing the Gαs subunit to exchange bound guanosine diphosphate (GDP) for guanosine triphosphate (GTP), followed by dissociation of the Gαs-GTP complex. The activated Gas subunit can couple to downstream effectors to regulate the levels of second messengers or cAMP within the cell. Thereby, determination of intracellular cAMP levels allows for pharmacological characterization. Intracellular cAMP levels are quantitated using a homogenous assay utilizing the Homogeneous Time Resolved Fluorescence (HTRF) technology from Perkin Elmer. […] The two entities compete for binding to a monoclonal anti-cAMP antibody labeled with cryptate. The specific signal is inversely proportional to the concentration of cAMP in the cells.
Test compounds were solubilized to a concentration of 30 mM in 100% dimethyl sulfoxide (DMSO). An 11-point dilution series using 1 in 3.162-fold serial dilutions was created in 100% DMSO with a top concentration of 8 mM. The serially diluted compound was spotted with an Echo Acoustic liquid handler (Beckman Coulter) into a 384-well assay plate (Corning, Cat No. 3824) at 50 nL/well with duplicate points at each concentration, at a 200× final assay concentration (FAC). The final compound concentration range in the assay was 40 μM to […], with a final DMSO concentration of 0.5%.
Frozen assay-ready vials (at 1×10^7 cells/vial) of CHO-K1 cells stably expressing the Gs-coupled human GIPR receptor (Eurofins, DiscoverX, Cat No. 95-0146C2) were thawed, counted, and resuspended in assay buffer consisting of Hank's Balanced Salt Solution (HBSS, Lonza Cat No. 10-527) containing 20 mM (4-(2-hydroxyethyl)-1-piperazineethanesulfonic acid (HEPES, Lonza, Cat No. 17-737E), 0.1% bovine serum albumin (BSA, Sigma, Cat No. A7979), and 200 μM 3-isobutyl-1-methylxanthine (IBMX, Sigma, Cat No. 15879) at a density of 4×10^5 cells/mL. Cells were added to assay plate (5 μL/well of 4×10^5 cells/mL stock for 2,000 cells/well final) containing 50 nL of 200× FAC test compound, and incubated at 37° C. (95% O2: 5% CO2) for 2 hours, with micro-clime lids (Labcyte, Cat No. LLS-0310). Following the 2-hour cell and compound incubation, a stimulation mix comprised of hGIPR agonist human glucose-dependent insulinotropic polypeptide (hGIP, full length, Sigma Cat No. G2269) in assay buffer/0.1% DMSO was added to the assay plate (5 μL/well) at an estimated EC80 FAC (based on previous hGIP agonist curves) and incubated for another 30 minutes with micro-clime lids at 37° C. (95% O2: 5% CO2), after which intracellular cAMP levels were quantified as per Perkin Elmer's protocol (5 μL of d2 and then 5 μL cryptate, incubated for 1 hour at room temperature). Emission spectra of samples were measured on a Pherastar plate reader (BMG Labtech Inc) using a HTRF protocol (excitation, 320 nm; emission, 665 nm/620 nm).
(95% O2: 5% CO2), with a micro-clime lid. Following the 2-hour cell and DMSO incubation, a hGIP concentration response curve at 2× FAC (12-point curve using 1 in 3 serial dilutions, with triplicate points at each concentration, 100 nM final top concentration) in assay buffer/1% DMSO was added (5 μL/well) and incubated for a further 30 minutes with a micro-clime lid at 37° C. (95% O2: 5% CO2), after which intracellular cAMP levels were quantified and samples measured as described previously. Experiments passed quality control if the agonist concentration used for stimulation fell between the on-the-day EC50-EC90. […]

| IC50 [nM] | Compound |
| --- | --- |
| 9.1 | CC(C)c1ccc(NC(=O)N2CCC[C@@H]2C(=O)Nc2ccc(-c3ccc(C(=O)O)cc3)cn2)cc1 [Example 5, Ammonium 4-{6-[(1-{[4-(propan-2-yl)phenyl]carbamoyl}-D-prolyl)amino]pyridin-3-yl}benzoate] |
| 6.5 | CC(C)c1ccc(NC(=O)N2CCC[C@@H]2C(=O)Nc2ccc(-c3ccc(C(=O)O)cc3)cc2F)cc1 [Example 6, 3′-Fluoro-4′-[(1-{[4-(propan-2-yl)phenyl]carbamoyl}-D-prolyl)amino][1,1′-biphenyl]-4-carboxylic acid] |
| 8.1 | O=C(O)c1ccc(-c2ccc(NC(=O)[C@H]3CCCN3C(=O)Nc3ccc(C4CC4)cc3)cc2)cc1 [Example 7, Ammonium 4′-({1-[(4-cyclopropylphenyl)carbamoyl]-D-prolyl}amino)[1,1′-biphenyl]-4-carboxylate] |
| 150 | CC(C)c1ccc(NC(=O)N2CCC[C@@H]2C(=O)Nc2ccc(-c3ncc(C(=O)O)cn3)cc2)cc1 [Example 8, ammonium 2-{4-[(1-{[4-(propan-2-yl)phenyl]carbamoyl}-D-prolyl)amino]phenyl}pyrimidine-5-carboxylate] |
| 130 | CC(C)c1ccc(NC(=O)N2CCC[C@@H]2C(=O)Nc2ccc(-c3cccc(C(=O)O)n3)cc2)cc1 [Example 9, ammonium 6-{4-[(1-{[4-(propan-2-yl)phenyl]carbamoyl}-D-prolyl)amino]phenyl}pyridine-2-carboxylate] |
| 67 | CC(C)c1ccc(NC(=O)N2CCC[C@@H]2C(=O)Nc2ccc3cc(C(=O)O)ccc3c2)cc1 [Example 10, 6-[(1-{[4-(propan-2-yl)phenyl]carbamoyl}-D-prolyl)amino]naphthalene-2-carboxylic acid] |
| 180 | Cc1cc(NC(=O)[C@H]2CCCN2C(=O)Nc2ccc(C(C)C)cc2)cc2ccc(C(=O)O)nc12 [Example 11, 8-methyl-6-[(1-{[4-(propan-2-yl)phenyl]carbamoyl}-D-prolyl)amino]quinoline-2-carboxylic acid, trifluoroacetate salt] |
| 10 | C=C(C)c1ccc(NC(=O)N2CCC[C@@H]2C(=O)Nc2ccc(-c3ccc(C(=O)O)cc3)cc2)cc1 [Example 12, 4′-[(1-{[4-(prop-1-en-2-yl)phenyl]carbamoyl}-D-prolyl)amino][1,1′-biphenyl]-4-carboxylic acid] |
| 12 | O=C(O)c1ccc(-c2ccc(NC(=O)[C@H]3CCCN3C(=O)Nc3ccc(Cl)cc3)cc2)cc1 [Example 13, ammonium 4′-({1-[(4-chlorophenyl)carbamoyl]-D-prolyl}amino)[1,1′-biphenyl]-4-carboxylate] |
| 88 | CC(C)c1ccc(NC(=O)N2CCC[C@@H]2C(=O)Nc2ccc(-c3ccnc(C(=O)O)c3)cc2)cc1 [Example 14, ammonium 4-{4-[(1-{[4-(propan-2-yl)phenyl]carbamoyl}-D-prolyl)amino]phenyl}pyridine-2-carboxylate] |
| 8.1 | CC(C)c1ccc(NC(=O)N2CCC[C@@H]2C(=O)Nc2c(F)cc(-c3ccc(C(=O)O)cc3)cc2F)cc1 [Example 15, 3′,5′-difluoro-4′-[(1-{[4-(propan-2-yl)phenyl]carbamoyl}-D-prolyl)amino][1,1′-biphenyl]-4-carboxylic acid] |
| 3.7 | O=C(O)c1ccc(-c2ccc(NC(=O)[C@H]3CCCN3C(=O)Nc3ccc(C(F)(F)F)cc3)cc2)cc1 [Example 16, Ammonium 4′-[(1-{[4-(trifluoromethyl)phenyl]carbamoyl}-D-prolyl)amino][1,1′-biphenyl]-4-carboxylate] |
| 14 | Cc1cc(NC(=O)N2CCC[C@@H]2C(=O)Nc2ccc(-c3ccc(C(=O)O)nc3)cc2)ccc1C(F)(F)F [Example 17, 5-{4-[(1-{[3-Methyl-4-(trifluoromethyl)phenyl]carbamoyl}-D-prolyl)amino]phenyl}pyridine-2-carboxylic acid] |
| 15 | CC(C)c1ccc(NC(=O)N2CCC[C@@H]2C(=O)Nc2ccc(-c3ccc(C(=O)O)cc3)nc2)cc1 [Example 18, 4-{5-[(1-{[4-(Propan-2-yl)phenyl]carbamoyl}-D-prolyl)amino]pyridin-2-yl}benzoic acid] |
